Results as given in patent publication US20090143418A1, “Compositions and Methods for Preventing and Treating Hair Growth Cycle-Related Conditions” (THE REGENTS OF THE UNIVERSITY OF MICHIGAN, priority 2007, published 2009).
Several values for one entry are separate records, joined by “and”; a condition that tells them apart may be missing. Equal values may be shown once.

Assays:
[1] = test system: hirsutism; settings: hirsutism patients; cited from earlier work
[2] = test system: wild-type nonirradiated mice; assay: Depilation-induced hair cycle, skin pigmentation onset; assay type: in vivo, mouse; settings: 4 mg/kg starting the day after depilation
Description: (§1) Rapamycin: Rapamycin (LC Laboratories) was administered by intraperitoneal injection. Rapamycin was reconstituted in ethanol (10 mg/ml or 1 mg/ml) and diluted into a solution of 5% Tween-80 (Sigma) and 5% PEG-400 (Hampton Research). The final volume injected was […]. Dosing and administration regimes were as indicated in Example II.
Depilation: Mice were anesthetized by intraperitoneal injection of 80 mg/kg of ketamine and 4 mg/kg of […] dissolved in HBSS. Final injection volume was 200 μl. The dorsal hair of the mice was then shaved with conventional clippers, and a commercial depilatory cream (Veet®) was applied liberally to an area of approximately 1.5×1.5 cm. After 5 minutes, the cream was washed off the mouse using warm water, and the mouse was gently dried using paper towels.
In analyzing the frequency of hair follicles that contained X-gal+ melanocytes, it became apparent that the hair follicles of rapamycin treated animals were less frequently in mature stages of the hair cycle (see FIG. 4). […] As such, a region of the lower back of wild-type nonirradiated mice was shaved and depilated. Depilation induced a new hair growth cycle, thereby permitting to test if in this context rapamycin could prevent the onset of or lengthen the duration of the hair cycle. […]

[3] = test system: DCT-LacZ mice; assay: DCT-LacZ (X-gal) staining of skin, hair follicles containing melanocyte progenitors; assay type: in vivo, mouse; settings: for percentage of hair follicles containing DCT-LacZ+ cells, Average: 11.2 grays irradiation, rapamycin 4 mg/kg/day i.p.; for percentage of hair follicles containing DCT-LacZ+ cells, individual mouse: individual animals (Mouse 1-4), 4 mg/kg/day i.p., 4 mg/kg/day
Description: Mice: DCT-LacZ mice were backcrossed for 3 generations on a C57BL background.
Irradiation and Bone Marrow Transplant: Adult recipient mice were irradiated using a gamma cell irradiator. Mice received two doses of 560 rads each delivered 3 hours apart (FIGS. 1-4, FIG. 7, Table 1). Mice received 1,000,000 whole bone marrow cells isolated from a C57BL donor (FIGS. 1-4, FIG. 7, Table 1). Bone marrow cells were suspended in HBSS free with 2% Bovine Serum and injected via the retro orbital venous sinus. Where indicated, mice were sublethally irradiated with 650 rads and not subjected to bone marrow transplant (FIG. 6).
as §1
(§2) DCT-LacZ Staining A 2×2 cm patch of skin was harvested with dissecting scissors from euthanized DCT-LacZ mice. The skin patch was washed in phosphate buffer (0.5M Na2HPO4, 0.5M NaH2PO4, 2 mM MgC12, 0.02% NP-40, 0.01% sodium deoxycolate), and then fixed on ice in 0.2% glutaraldehyde in phosphate buffer for 30 minutes. While being fixed, the skin samples were microwaved in fixation solution on ice for 20 seconds. After fixation, the samples were washed and the adipose layer was removed by dissection. After another washing, the skin samples were stained in 1 mg/ml X-gal in phosphate buffer for 2.5 hours. After staining, samples were washed and roughly 1 mm wide sections were made manually using a razor blade. Sections were mounted in 70% glycerol.
To better understand the effects of rapamycin on melanocyte progenitors, transplantation experiments in mice bearing a DCT-LacZ transgene, which is expressed by melanocyte progenitors in hair follicles, were conducted (see, e.g., Mackenzie, M. A., et al., Dev Biol 192, 99-107 (1997); Nishimura, E. K., et al., Nature 416, 854-60 (2002); each herein incorporated by reference in their entireties). This transgene expresses the bacterial LacZ gene under the control of the melanocyte specific promoter for the gene dopachrome tautomerase. These mice were used as recipients in similar transplants where 1 million whole bone marrow cells were irradiated and transplanted. The mice were treated with 0.4 mg/kg of rapamycin every other day for the first two weeks and then with 4 mg/kg/day after that. These mice were sacrificed at regular intervals, and their skin harvested and stained with X-gal.
Animals were sacrificed at each time point and stained with X-gal. The percentage of hair follicles containing DCT-LacZ+ cells was quantified.

[4] = test system: DCT-LacZ mice; assay: Hair cycle stage (anagen) in skin sections of irradiated, transplanted DCT-LacZ mice; assay type: in vivo, mouse; settings: 2/18 rapamycin treated animals versus 56% (10/18) vehicle; P=0.0001
Description: as §2
To better understand the effects of rapamycin on melanocyte progenitors, transplantation experiments in mice bearing a DCT-LacZ transgene, which is expressed by melanocyte progenitors in hair follicles, were conducted (see, e.g., Mackenzie, M. A., et al., Dev Biol 192, 99-107 (1997); Nishimura, E. K., et al., Nature 416, 854-60 (2002); each herein incorporated by reference in their entireties). This transgene expresses the bacterial LacZ gene under the control of the melanocyte specific promoter for the gene dopachrome tautomerase. […]

For `NCCCC(N)(C(=O)O)C(F)F` (stereo not drawn) [Eflornithine], the side effects [1] is listed as “minor skin irritation, folliculitis, stinging, burning, tingling, acne, and/or rash”.

With `CO[C@H]1C[C@@H]2CC[C@@H](C)[C@@](O)(O2)C(=O)C(=O)N2CCCC[C@H]2C(=O)O[C@H]([C@H](C)C[C@@H]2CC[C@@H](O)[C@H](OC)C2)CC(=O)[C@H](C)/C=C(\C)[C@@H](O)[C@@H](OC)C(=O)[C@H](C)C[C@H](C)/C=C/C=C/C=C/1C` [Rapamycin] the “days until pigmentation was visible in skin” value ([2]; n=5, vehicle 16.7 days, p=0.04) was 25.2 days, the “delay of change in skin color (progression through anagen) versus vehicle” value ([2]; on average) was 8 days and the “percentage of hair follicles containing DCT-LacZ+ cells, Average” value (“percentage … Average” for short) ([3]; Week 8) was 61.0%. For the same molecule, the “percentage of hair follicles containing DCT-LacZ+ cells, individual mouse” value (“percentage … individual mouse” below) ([3]; Week 8) was 77.0% and 45.0%, the “percentage … Average” value ([3]; Week 10) was 34.1% and the “percentage … individual mouse” value ([3]; Week 10) was 19.3% and 22.0% and 42.0% and 53.0%. For the same molecule, the “percentage … Average” value ([3]; Week 12) was 48.3%, the “percentage … individual mouse” value ([3]; Week 12) was 54.0% and 39.0% and 52.0% and the “percentage … Average” value ([3]; Week 14) was 40.5%. The “percentage … individual mouse” value ([3]; Week 14) was 53.0% and 42.0% and 17.0% and 50.0% and the “animals with hairs in anagen” value [4] was 11%.
